Laboratory results from PubChem BioAssay (NCI).
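Each compound was tested at five concentrations against cells in 96-well plates for 48 hours. TGI is the concentration that stops growth completely.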

Tests used:
Assay in all cases: NCI-60 cell line screen, 48 h
HCT-116 colon = system: HCT-116 colon
MDA-MB-231 breast = system: MDA-MB-231 breast
BT-549 breast = system: BT-549 breast
SR leukemia = system: SR leukemia
MDA-MB-435 = system: MDA-MB-435
CAKI-1 renal = system: CAKI-1 renal
OVCAR-5 ovarian = system: OVCAR-5 ovarian
UACC-257 melanoma = system: UACC-257 melanoma
OVCAR-3 ovarian = system: OVCAR-3 ovarian
EKVX NSCLC = system: EKVX NSCLC
MALME-3M melanoma = system: MALME-3M melanoma
PC-3 prostate = system: PC-3 prostate
KM12 colon = system: KM12 colon
TK-10 renal = system: TK-10 renal
HOP-92 NSCLC = system: HOP-92 NSCLC
SF-539 CNS = system: SF-539 CNS
UACC-62 melanoma = system: UACC-62 melanoma
MDA-N = system: MDA-N
SK-MEL-5 melanoma = system: SK-MEL-5 melanoma
SK-MEL-28 melanoma = system: SK-MEL-28 melanoma
K-562 leukemia = system: K-562 leukemia
SNB-19 CNS = system: SNB-19 CNS
SN12C renal = system: SN12C renal
T-47D breast = system: T-47D breast
CCRF-CEM leukemia = system: CCRF-CEM leukemia
NCI-H23 lung = system: NCI-H23 lung
SK-MEL-2 melanoma = system: SK-MEL-2 melanoma
SF-268 CNS = system: SF-268 CNS
OVCAR-8 ovarian = system: OVCAR-8 ovarian
SK-OV-3 ovarian = system: SK-OV-3 ovarian
MCF7 breast = system: MCF7 breast
ACHN renal = system: ACHN renal
RPMI-8226 leukemia = system: RPMI-8226 leukemia
COLO 205 colon = system: COLO 205 colon
NCI-H522 lung = system: NCI-H522 lung
HOP-62 NSCLC = system: HOP-62 NSCLC
HCT-15 colon = system: HCT-15 colon
IGROV1 ovarian = system: IGROV1 ovarian
DU-145 prostate = system: DU-145 prostate
HL-60(TB) leukemia = system: HL-60(TB) leukemia
NCI-H226 lung = system: NCI-H226 lung
A498 renal = system: A498 renal
SW-620 colon = system: SW-620 colon
LOX IMVI melanoma = system: LOX IMVI melanoma
A549 NSCLC = system: A549 NSCLC
NCI/ADR-RES ovarian = system: NCI/ADR-RES ovarian
786-0 renal = system: 786-0 renal
UO-31 renal = system: UO-31 renal
U251 CNS = system: U251 CNS
MOLT-4 leukemia = system: MOLT-4 leukemia
OVCAR-4 ovarian = system: OVCAR-4 ovarian
HS 578T breast = system: HS 578T breast
HT29 colon = system: HT29 colon
M14 melanoma = system: M14 melanoma
SF-295 CNS = system: SF-295 CNS
SNB-75 CNS = system: SNB-75 CNS
NCI-H460 lung = system: NCI-H460 lung
RXF 393 renal = system: RXF 393 renal

With `COc1ccc2c3c1O[C@H]1[C@@H](O)CC[C@@]4(O)[C@@H](C2)N(C)CC[C@]314` the TGI (HCT-116 colon) was over 100 µM, the TGI (MDA-MB-231 breast) was over 100 µM and the TGI (BT-549 breast) was over 100 µM. The TGI (SR leukemia) was over 100 µM, the TGI (MDA-MB-435) was over 100 µM and the TGI (CAKI-1 renal) was over 100 µM. For the same molecule, the TGI (OVCAR-5 ovarian) was over 100 µM, the TGI (UACC-257 melanoma) was over 100 µM and the TGI (OVCAR-3 ovarian) was over 100 µM. It also gave a TGI (EKVX NSCLC) of over 100 µM, a TGI (MALME-3M melanoma) of over 100 µM and a TGI (PC-3 prostate) of over 100 µM. It also gave a TGI (KM12 colon) of over 100 µM, a TGI (TK-10 renal) of over 100 µM and a TGI (HOP-92 NSCLC) of over 100 µM. For the same molecule, the TGI (SF-539 CNS) was over 100 µM, the TGI (UACC-62 melanoma) was over 100 µM and the TGI (MDA-N) was over 100 µM. The TGI (SK-MEL-5 melanoma) was over 100 µM, the TGI (SK-MEL-28 melanoma) was over 100 µM and the TGI (K-562 leukemia) was over 100 µM. The TGI (SNB-19 CNS) was over 100 µM, the TGI (SN12C renal) was over 100 µM and the TGI (T-47D breast) was over 100 µM. The TGI (CCRF-CEM leukemia) was over 100 µM, the TGI (NCI-H23 lung) was over 100 µM and the TGI (SK-MEL-2 melanoma) was over 100 µM. For the same molecule, the TGI (SF-268 CNS) was over 100 µM, the TGI (OVCAR-8 ovarian) was over 100 µM and the TGI (SK-OV-3 ovarian) was over 100 µM. It also gave a TGI (MCF7 breast) of over 100 µM, a TGI (ACHN renal) of over 100 µM and a TGI (RPMI-8226 leukemia) of over 100 µM. The TGI (COLO 205 colon) was over 100 µM, the TGI (NCI-H522 lung) was over 100 µM and the TGI (HOP-62 NSCLC) was over 100 µM. The TGI (HCT-15 colon) was over 100 µM, the TGI (IGROV1 ovarian) was over 100 µM and the TGI (DU-145 prostate) was over 100 µM. It also gave a TGI (HL-60(TB) leukemia) of over 100 µM, a TGI (NCI-H226 lung) of over 100 µM and a TGI (A498 renal) of over 100 µM. For the same molecule, the TGI (SW-620 colon) was over 100 µM, the TGI (LOX IMVI melanoma) was over 100 µM and the TGI (A549 NSCLC) was over 100 µM. The TGI (NCI/ADR-RES ovarian) was over 100 µM, the TGI (786-0 renal) was over 100 µM and the TGI (UO-31 renal) was over 100 µM. For the same molecule, the TGI (U251 CNS) was over 100 µM, the TGI (MOLT-4 leukemia) was over 100 µM and the TGI (OVCAR-4 ovarian) was over 100 µM. The TGI (HS 578T breast) was over 100 µM, the TGI (HT29 colon) was over 100 µM and the TGI (M14 melanoma) was over 100 µM. The TGI (SF-295 CNS) was over 100 µM.

Molecule `O=C1CSC(c2ccccc2O)N1c1ccc(-c2ccc(-n3c(-c4ccccc4)nc4ccccc4c3=O)cc2)cc1` (stereo not given) has a TGI (HCT-116 colon) of over 100 µM, a TGI (MDA-MB-231 breast) of over 100 µM and a TGI (BT-549 breast) of 55.7 µM. The TGI (SR leukemia) was over 100 µM, the TGI (MDA-MB-435) was over 100 µM and the TGI (CAKI-1 renal) was 69.1 µM. For the same molecule, the TGI (SNB-75 CNS) was over 100 µM, the TGI (OVCAR-5 ovarian) was over 100 µM and the TGI (UACC-257 melanoma) was over 100 µM. It also gave a TGI (OVCAR-3 ovarian) of over 100 µM, a TGI (EKVX NSCLC) of over 100 µM and a TGI (MALME-3M melanoma) of 49.3 µM. It also gave a TGI (PC-3 prostate) of 94.9 µM, a TGI (KM12 colon) of 52.3 µM and a TGI (TK-10 renal) of 71 µM. It also gave a TGI (HOP-92 NSCLC) of over 100 µM, a TGI (SF-539 CNS) of over 100 µM and a TGI (UACC-62 melanoma) of over 100 µM. For the same molecule, the TGI (MDA-N) was over 100 µM, the TGI (SK-MEL-28 melanoma) was over 100 µM and the TGI (K-562 leukemia) was over 100 µM. For the same molecule, the TGI (SNB-19 CNS) was over 100 µM, the TGI (SN12C renal) was over 100 µM and the TGI (T-47D breast) was over 100 µM. It also gave a TGI (CCRF-CEM leukemia) of over 100 µM, a TGI (NCI-H23 lung) of over 100 µM and a TGI (SF-268 CNS) of over 100 µM. The TGI (OVCAR-8 ovarian) was over 100 µM, the TGI (SK-OV-3 ovarian) was over 100 µM and the TGI (MCF7 breast) was over 100 µM. The TGI (NCI-H460 lung) was over 100 µM, the TGI (RPMI-8226 leukemia) was over 100 µM and the TGI (COLO 205 colon) was 44.9 µM. It also gave a TGI (NCI-H522 lung) of 44.7 µM, a TGI (HOP-62 NSCLC) of over 100 µM and a TGI (HCT-15 colon) of over 100 µM. For the same molecule, the TGI (IGROV1 ovarian) was over 100 µM, the TGI (DU-145 prostate) was over 100 µM and the TGI (HL-60(TB) leukemia) was over 100 µM. The TGI (NCI-H226 lung) was over 100 µM, the TGI (A498 renal) was over 100 µM and the TGI (RXF 393 renal) was 91.9 µM. It also gave a TGI (SW-620 colon) of over 100 µM, a TGI (LOX IMVI melanoma) of 77.4 µM and a TGI (A549 NSCLC) of 77.8 µM. It also gave a TGI (NCI/ADR-RES ovarian) of over 100 µM, a TGI (786-0 renal) of 60.9 µM and a TGI (UO-31 renal) of over 100 µM. For the same molecule, the TGI (U251 CNS) was over 100 µM, the TGI (MOLT-4 leukemia) was over 100 µM and the TGI (OVCAR-4 ovarian) was over 100 µM. The TGI (HS 578T breast) was over 100 µM, the TGI (HT29 colon) was 28.7 µM and the TGI (M14 melanoma) was over 100 µM. It also gave a TGI (SF-295 CNS) of 54.2 µM.
